Data reported in patent publication US10562912B2 (C&C Research Laboratories, priority 2013, dated 2020).

Tests used:
Assay type in all cases: cell-based
STAT3 = target: T1, STAT3 (Homo sapiens, UniProt P40763); assay: STAT3 reporter gene assay (luciferase), LNCaP stable cell line (pSTAT3-TA-luc), IL-6 stimulation
T1 construct: plasmid pSTAT3-TA-luc), which contains a stably operating STAT3 promoter; endogenous in cells
In short: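 LNCaP cells stably carrying pSTAT3-TA-luc, in RPMI1640 with 3% DCC-FBS, were treated with compound and then stimulated with 10 ng/mL IL-6 for 24–48 h at 37 °C. Luciferase activity was measured in lysates. A parallel plate measured viability by CellTiter-Glo, with stimulated 0.1% DMSO wells as the positive control.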

MDA-MB-231 = assay: Cell growth inhibition assay, breast cancer cell line MDA-MB-231; details: Homo sapiens; MDA-MB-231 breast cancer cell line, 5,000 cells/well
LNCaP = assay: Cell growth inhibition assay, prostate cancer cell line LNCaP (medium with 10 ng/mL IL-6); details: Homo sapiens, medium supplemented with 10 ng/mL of IL-6, 10,000 cells/well

T1 sequence (P40763 whole entry): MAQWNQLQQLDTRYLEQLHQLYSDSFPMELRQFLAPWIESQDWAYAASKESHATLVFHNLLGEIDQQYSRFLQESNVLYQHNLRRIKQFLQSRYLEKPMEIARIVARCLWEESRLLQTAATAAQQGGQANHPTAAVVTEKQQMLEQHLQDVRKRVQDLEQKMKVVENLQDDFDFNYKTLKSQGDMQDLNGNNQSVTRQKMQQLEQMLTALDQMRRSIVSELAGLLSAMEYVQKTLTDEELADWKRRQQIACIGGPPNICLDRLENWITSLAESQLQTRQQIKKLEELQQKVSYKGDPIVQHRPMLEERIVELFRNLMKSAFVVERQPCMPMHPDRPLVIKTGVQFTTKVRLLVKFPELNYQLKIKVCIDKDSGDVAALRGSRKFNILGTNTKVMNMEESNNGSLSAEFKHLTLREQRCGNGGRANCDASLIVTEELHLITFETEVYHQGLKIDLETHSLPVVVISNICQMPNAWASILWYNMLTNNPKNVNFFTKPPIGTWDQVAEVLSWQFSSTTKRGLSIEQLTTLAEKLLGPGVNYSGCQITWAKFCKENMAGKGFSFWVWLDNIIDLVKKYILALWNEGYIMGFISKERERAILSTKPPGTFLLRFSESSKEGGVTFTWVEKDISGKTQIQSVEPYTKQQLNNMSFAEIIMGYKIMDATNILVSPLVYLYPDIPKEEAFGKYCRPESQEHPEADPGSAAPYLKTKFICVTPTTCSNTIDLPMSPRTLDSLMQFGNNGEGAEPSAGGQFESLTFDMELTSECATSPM

| SMILES | IC50 (STAT3) | IC50 (MDA-MB-231) | IC50 (LNCaP) |
| --- | --- | --- | --- |
| CS(=O)(=O)Nc1ccc2cc(C(=O)Nc3cc(-c4ccncc4)cc(-c4ccc(F)cc4F)c3)[nH]c2c1 [Example 356, N-(2′,4′-difluoro-5-(pyridin-4-yl)-[1,1′-biphenyl]-3-yl)-6-(methylsulfonamido)-1H-indole-2-carboxamide] | 3.6 µM | 3.3 µM | 9.9 µM |
| CS(=O)(=O)Nc1ccc2cc(C(=O)Nc3cc(-c4cccnc4)cc(-c4ccc(F)cc4F)c3)[nH]c2c1 [Example 357, N-(2′,4′-difluoro-5-(pyridin-3-yl)-[1,1′-biphenyl]-3-yl)-6-(methylsulfonamido)-1H-indole-2-carboxamide] | 1.7 µM | 1.2 µM | 6.6 µM |
| CS(=O)(=O)Nc1ccc2cc(C(=O)Nc3cc(-c4ccc(C#N)nc4)cc(-c4ccc(F)cc4F)c3)[nH]c2c1 [Example 359, N-(5-(6-cyanopyridin-3-yl)-2′,4′-difluoro-[1,1′-biphenyl]-3-yl)-6-(methylsulfonamido)-1H-indole-2-carboxamide] | > 10 µM | 2.6 µM | > 10 µM |
| CS(=O)(=O)Nc1ccc2cc(C(=O)Nc3cc(-c4cncnc4)cc(-c4ccc(F)cc4F)c3)[nH]c2c1 [Example 360, N-(2′,4′-difluoro-5-(pyrimidin-5-yl)-[1,1′-biphenyl]-3-yl)-6-(methylsulfonamido)-1H-indole-2-carboxamide] | > 10 µM | 1.8 µM | > 10 µM |
| CS(=O)(=O)Nc1ccc2cc(C(=O)Nc3cc(-c4ccc(F)cc4F)cc(-c4ccc(F)cc4F)c3)[nH]c2c1 [Example 362, 6-(methylsulfonamido)-N-(2,2″,4,4″-tetrafluoro-[1,1′:3′,1″-terphenyl]-5′-yl)-1H-indole-2-carboxamide] | 0.72 µM | 0.69 µM | 2.6 µM |
| CS(=O)(=O)Nc1ccc2cc(C(=O)Nc3cc(-c4ccc(O)nc4)cc(-c4ccc(F)cc4F)c3)[nH]c2c1 [Example 364, N-(2′,4′-difluoro-5-(6-hydroxypyridin-3-yl)-[1,1′-biphenyl]-3-yl)-6-(methylsulfonamido)-1H-indole-2-carboxamide] | > 10 µM | > 10 µM | > 10 µM |
| CS(=O)(=O)Nc1ccc2cc(C(=O)Nc3cc(OC(F)F)cc(-c4ccc(F)cc4F)c3)[nH]c2c1 [Example 369, N-(5-(difluoromethoxy)-2′,4′-difluoro-[1,1′-biphenyl]-3-yl)-6-(methylsulfonamido)-1H-indole-2-carboxamide] | 0.7 µM | 0.28 µM | 3.8 µM |
| CS(=O)(=O)Nc1ccc2sc(C(=O)Nc3cc(OC(F)F)cc(-c4ccc(F)cc4F)c3)cc2c1 [Example 370, N-(5-(difluoromethoxy)-2′,4′-difluoro-[1,1′-biphenyl]-3-yl)-5-(methylsulfonamido)benzo[b]thiophene-2-carboxamide] | 0.21 µM | 0.032 µM | 0.6 µM |
| CS(=O)(=O)Nc1ccc2cc(C(=O)Nc3cc(-c4ccc(F)cc4F)cc(N4CCCCC4)c3)[nH]c2c1 [Example 371, N-(2′,4′-difluoro-5-(piperidin-1-yl)-[1,1′-biphenyl]-3-yl)-6-(methylsulfonamido)-1H-indole-2-carboxamide] | 0.9 µM | 1.4 µM | 7.8 µM |
| CN(C)c1cc(NC(=O)c2cc3ccc(NS(C)(=O)=O)cc3[nH]2)cc(-c2ccc(F)cc2F)c1 [Example 372, N-(5-(dimethylamino)-2′,4′-difluoro-[1,1′-biphenyl]-3-yl)-6-(methylsulfonamido)-1H-indole-2-carboxamide] | 0.34 µM | 0.46 µM | 3.5 µM |
| CN(C)c1cc(NC(=O)c2cc3cc(NS(C)(=O)=O)ccc3s2)cc(-c2ccc(F)cc2F)c1 [Example 375, N-(5-(dimethylamino)-2′,4′-difluoro-[1,1′-biphenyl]-3-yl)-5-(methylsulfonamido)benzo[b]thiophene-2-carboxamide] | 0.14 µM | 0.028 µM | 1.1 µM |
| CN(C)c1cc(NC(=O)c2cc3cc(NS(C)(=O)=O)ccc3o2)cc(-c2ccc(F)cc2F)c1 [Example 376, N-(5-(dimethylamino)-2′,4′-difluoro-[1,1′-biphenyl]-3-yl)-5-(methylsulfonamido)benzofuran-2-carboxamide] | 5.2 µM | 1.3 µM | 7.7 µM |
| COc1ccc(-c2cc(NC(=O)c3cc4ccc(NS(C)(=O)=O)cc4[nH]3)cc(-c3ccc(F)cc3F)c2)cn1 [Example 382, N-(2′,4′-difluoro-5-(6-methoxypyridin-3-yl)-[1,1′-biphenyl]-3-yl)-6-(methylsulfonamido)-1H-indole-2-carboxamide] | 0.33 µM | 0.91 µM | 3.8 µM |
| COc1cccc(-c2cc(NC(=O)c3cc4ccc(NS(C)(=O)=O)cc4[nH]3)cc(-c3ccc(F)cc3F)c2)n1 [Example 383, N-(2′,4′-difluoro-5-(6-methoxypyridin-2-yl)-[1,1′-biphenyl]-3-yl)-6-(methylsulfonamido)-1H-indole-2-carboxamide] | 0.09 µM | 2.33 µM | 4.3 µM |
| CS(=O)(=O)Nc1ccc2cc(C(=O)Nc3cc(-c4cccc(O)n4)cc(-c4ccc(F)cc4F)c3)[nH]c2c1 [Example 384, N-(2′,4′-difluoro-5-(6-hydroxypyridin-2-yl)-[1,1′-biphenyl]-3-yl)-6-(methylsulfonamido)-1H-indole-2-carboxamide] | > 10 µM | > 10 µM | > 10 µM |
| CS(=O)(=O)Nc1ccc2cc(C(=O)Nc3cccc(C(F)(F)c4ccccc4)c3)[nH]c2c1 [Example 387, N-(3-(difluoro(phenyl)methyl)phenyl)-6-(methylsulfonamido)-1H-indole-2-carboxamide] | 2.4 µM | 1.17 µM | 3.5 µM |
| CS(=O)(=O)Nc1ccc2cc(C(=O)Nc3cccc(S(=O)(=O)c4cccc(N)c4)c3)[nH]c2c1 [Example 415, N-(3-((3-aminophenyl)sulfonyl)phenyl)-6-(methylsulfonamido)-1H-indole-2-carboxamide] | 6.8 µM | 8.4 µM | > 10 µM |
| CS(=O)(=O)Nc1ccc2cc(C(=O)Nc3cccc(S(=O)(=O)c4cc(O)cc(C#N)c4)c3)[nH]c2c1 [Example 417, N-(3-((3-cyano-5-hydroxyphenyl)sulfonyl)phenyl)-6-(methylsulfonamido)-1H-indole-2-carboxamide] | > 10 µM | > 10 µM | > 10 µM |
| CS(=O)(=O)Nc1ccc2sc(C(=O)Nc3cccc(C4(c5ccccc5)CC4)c3)cc2c1 [Example 421, 5-(methylsulfonamido)-N-(3-(1-phenylcyclopropyl)phenyl)benzo[b]thiophene-2-carboxamide] | 0.2 µM | 0.089 µM | 1.1 µM |

The next lines start with the values.

| IC50 (STAT3) | IC50 (MDA-MB-231) | IC50 (LNCaP) | SMILES |
| --- | --- | --- | --- |
| 1.7 µM | 1.2 µM | 8 µM | CS(=O)(=O)Nc1ccc2cc(C(=O)Nc3cc(-c4ccc(C(F)(F)F)nc4)cc(-c4ccc(F)cc4F)c3)[nH]c2c1 [Example 358, N-(2′,4′-difluoro-5-(6-(trifluoromethyl)pyridin-3-yl)-[1,1′-biphenyl]-3-yl)-6-(methylsulfonamido)-1H-indole-2-carboxamide] |
| > 10 µM | > 10 µM | > 10 µM | CS(=O)(=O)Nc1ccc2cc(C(=O)Nc3cc(-c4cnc(N)nc4)cc(-c4ccc(F)cc4F)c3)[nH]c2c1 [Example 361, N-(5-(2-aminopyrimidin-5-yl)-2′,4′-difluoro-[1,1′-biphenyl]-3-yl)-6-(methylsulfonamido)-1H-indole-2-carboxamide] |
| 1.3 µM | 0.88 µM | 2.4 µM | CS(=O)(=O)Nc1ccc2cc(C(=O)Nc3cc(CC#N)cc(-c4ccc(F)cc4F)c3)[nH]c2c1 [Example 363, N-(5-(cyanomethyl)-2′,4′-difluoro-[1,1′-biphenyl]-3-yl)-6-(methylsulfonamido)-1H-indole-2-carboxamide] |
| 0.4 µM | 0.32 µM | 2.8 µM | C#Cc1cc(NC(=O)c2cc3ccc(NS(C)(=O)=O)cc3[nH]2)cc(-c2ccc(F)cc2F)c1 [Example 365, N-(5-ethynyl-2′,4′-difluoro-[1,1′-biphenyl]-3-yl)-6-(methylsulfonamido)-1H-indole-2-carboxamide] |
| 1.5 µM | 1 µM | 4.4 µM | CNc1cc(NC(=O)c2cc3ccc(NS(C)(=O)=O)cc3[nH]2)cc(-c2ccc(F)cc2F)c1 [Example 373, N-(2′,4′-difluoro-5-(methylamino)-[1,1′-biphenyl]-3-yl)-6-(methylsulfonamido)-1H-indole-2-carboxamide] |
| 6.4 µM | 2.7 µM | 9.9 µM | CS(=O)(=O)Nc1ccc2cc(C(=O)Nc3cc(-c4ccc(F)cc4F)cc(N4CCOCC4)c3)[nH]c2c1 [Example 374, N-(2′,4′-difluoro-5-morpholino-[1,1′-biphenyl]-3-yl)-6-(methylsulfonamido)-1H-indole-2-carboxamide] |
| 6 µM | 2.6 µM | 9 µM | C#Cc1cccc(S(=O)(=O)c2cccc(NC(=O)c3cc4ccc(NS(C)(=O)=O)cc4[nH]3)c2)c1 [Example 416] |
| 0.76 µM | 0.54 µM | 2.1 µM | CS(=O)(=O)Nc1ccc2cc(C(=O)Nc3cccc(C4(c5ccccc5)CC4)c3)[nH]c2c1 [Example 422, 6-(methylsulfonamido)-N-(3-(1-phenylcyclopropyl)phenyl)-1H-indole-2-carboxamide] |
| 0.26 µM | 0.094 µM | 1.1 µM | C=C(c1ccccc1)c1cccc(NC(=O)c2cc3cc(NS(C)(=O)=O)ccc3s2)c1 [Example 423, 5-(methylsulfonamido)-N-(3-(1-phenylvinyl)phenyl)benzo[b]thiophene-2-carboxamide] |
